Test results as given in ChEMBL document CHEMBL1201862, “PubChem BioAssay data set” (2004).
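Cells were grown in 96-well plates and exposed to each compound for 48 hours at five concentrations; endpoints were interpolated linearly between bracketing concentrations, or set to the highest concentration if not reached. GI50: concentration for 50% inhibition of growth.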 Calls of active or inactive are those of the source. Rule as the data show it: active = GI50 up to about 1.1 µM and inactive = higher.

How the values were obtained:
Experiment in all cases: growth of human tumour cells (NCI), 48 h
MDA-MB-435 = tested on: MDA-MB-435
PC-3 = tested on: PC-3
UO-31 = tested on: UO-31
HOP-62 = tested on: HOP-62
RPMI-8226 = tested on: RPMI-8226
SNB-19 = tested on: SNB-19
HT-29 = tested on: HT-29
K562 = tested on: K562
RXF 393 = tested on: RXF 393
M14 = tested on: M14
Malme-3M = tested on: Malme-3M
SK-MEL-28 = tested on: SK-MEL-28
SN12C = tested on: SN12C
HCT-15 = tested on: HCT-15
SR = tested on: SR
COLO 205 = tested on: COLO 205
NCI-H226 = tested on: NCI-H226
786-0 = tested on: 786-0
OVCAR-4 = tested on: OVCAR-4
NCI-H23 = tested on: NCI-H23

Compound	GI50 (MDA-MB-435)	GI50 (PC-3)	GI50 (UO-31)	GI50 (HOP-62)	GI50 (RPMI-8226)	GI50 (SNB-19)	GI50 (HT-29)	GI50 (K562)	GI50 (RXF 393)	GI50 (M14)	GI50 (Malme-3M)	GI50 (SK-MEL-28)	GI50 (SN12C)	GI50 (HCT-15) [µM]	GI50 (SR)	GI50 (COLO 205)	GI50 (NCI-H226)	GI50 (786-0)	GI50 (OVCAR-4)	GI50 (NCI-H23)
CCOC(=O)c1c(N2CCCC2)ncn(-c2ccccc2)c1=S	> 100 µM (inactive)	> 100 µM (inactive)	> 100 µM (inactive)	> 100 µM (inactive)	> 100 µM (inactive)	> 100 µM (inactive)	> 100 µM (inactive)	> 100 µM (inactive)	> 100 µM (inactive)	> 100 µM (inactive)	57.5 µM (inactive)	> 100 µM (inactive)	> 100 µM (inactive)	> 100	> 100 µM (inactive)	> 100 µM (inactive)	> 100 µM (inactive)	> 100 µM (inactive)	> 100 µM (inactive)	–
COc1cc(C2C3=C(COC3=O)Oc3cc4c(cc32)OCO4)ccc1O (stereo unspecified)	0.0552 µM (active)	0.167 µM (active)	0.327 µM (active)	0.394 µM (active)	0.372 µM (active)	0.333 µM (active)	0.359 µM (active)	0.148 µM (active)	0.306 µM (active)	0.439 µM (active)	0.174 µM (active)	0.847 µM (active)	2.69 µM (inactive)	0.476	0.252 µM (active)	0.225 µM (active)	9.55 µM (inactive)	0.481 µM (active)	0.321 µM (active)	0.65 µM (active)
Cc1ccc(N(C)S(=O)(=O)c2ccccc2)cc1	74 µM (inactive)	36.2 µM (inactive)	> 100 µM (inactive)	> 100 µM (inactive)	59.8 µM (inactive)	> 100 µM (inactive)	> 100 µM (inactive)	34.8 µM (inactive)	29.5 µM (inactive)	> 100 µM (inactive)	> 100 µM (inactive)	> 100 µM (inactive)	> 100 µM (inactive)	> 100	84.7 µM (inactive)	> 100 µM (inactive)	> 100 µM (inactive)	> 100 µM (inactive)	> 100 µM (inactive)	95.5 µM (inactive)
NC(=S)Nc1nc(=S)[nH]c2c1SC1=N/C(=C\c3ccco3)C(=O)N12	> 100 µM (inactive)	> 100 µM (inactive)	> 100 µM (inactive)	> 100 µM (inactive)	29.3 µM (inactive)	> 100 µM (inactive)	> 60.4 µM (inactive)	28.4 µM (inactive)	> 100 µM (inactive)	> 60.7 µM (inactive)	44.7 µM (inactive)	> 100 µM (inactive)	> 100 µM (inactive)	48.8	21.1 µM (inactive)	> 100 µM (inactive)	> 47.8 µM (inactive)	> 100 µM (inactive)	61.8 µM (inactive)	> 100 µM (inactive)
Cc1nc(C(N)=S)sc1C(=O)C/C(=N/N)C(=O)Nc1cccc(Cl)c1C	> 100 µM (inactive)	> 100 µM (inactive)	> 100 µM (inactive)	> 100 µM (inactive)	> 100 µM (inactive)	> 100 µM (inactive)	> 100 µM (inactive)	> 100 µM (inactive)	> 100 µM (inactive)	> 100 µM (inactive)	> 100 µM (inactive)	> 100 µM (inactive)	> 100 µM (inactive)	> 100	> 100 µM (inactive)	–	> 100 µM (inactive)	> 100 µM (inactive)	> 100 µM (inactive)	> 100 µM (inactive)
CC(=O)N1C(CCc2ccccc2)CC(C)(C=O)C1Cc1ccc(O[Si](C(C)C)(C(C)C)C(C)C)cc1 (stereo unspecified)	2.63 µM (inactive)	3.18 µM (inactive)	3.21 µM (inactive)	8.11 µM (inactive)	2.07 µM (inactive)	4.83 µM (inactive)	2.86 µM (inactive)	2.72 µM (inactive)	1.69 µM (inactive)	1.85 µM (inactive)	14.2 µM (inactive)	6.32 µM (inactive)	3.29 µM (inactive)	3.03	2.09 µM (inactive)	2.93 µM (inactive)	6.76 µM (inactive)	2.38 µM (inactive)	3.7 µM (inactive)	5.53 µM (inactive)
CCCCCCCC(=O)OC[n+]1cccc(-c2c(COC(=O)NC(C)C)c(COC(=O)NC(C)C)c3n2CCC3)c1	> 100 µM (inactive)	> 88.3 µM (inactive)	62.8 µM (inactive)	> 63.1 µM (inactive)	> 86.1 µM (inactive)	> 100 µM (inactive)	> 100 µM (inactive)	83.6 µM (inactive)	44.2 µM (inactive)	98.2 µM (inactive)	> 100 µM (inactive)	> 100 µM (inactive)	48 µM (inactive)	> 100	12.8 µM (inactive)	> 87.7 µM (inactive)	97.5 µM (inactive)	40 µM (inactive)	> 100 µM (inactive)	61.7 µM (inactive)
CCN(CCCOc1ccccc1)CCN(CC)CCCOc1ccccc1	13 µM (inactive)	2.52 µM (inactive)	10.2 µM (inactive)	20.4 µM (inactive)	0.249 µM (active)	9.1 µM (inactive)	7.59 µM (inactive)	3.1 µM (inactive)	13.4 µM (inactive)	11.5 µM (inactive)	15.8 µM (inactive)	15.1 µM (inactive)	20 µM (inactive)	10.4	8.26 µM (inactive)	5.86 µM (inactive)	21.8 µM (inactive)	18.4 µM (inactive)	18.6 µM (inactive)	18.8 µM (inactive)
NC(=O)c1csc(C2OC(CO)C(O)C2O)n1 (stereo unspecified)	57.9 µM (inactive)	4.9 µM (inactive)	53.2 µM (inactive)	90.8 µM (inactive)	150 µM (inactive)	38.3 µM (inactive)	40.3 µM (inactive)	4.26 µM (inactive)	126 µM (inactive)	6.84 µM (inactive)	1640 µM (inactive)	–	379 µM (inactive)	4.14	> 31.6 µM (inactive)	7.45 µM (inactive)	723 µM (inactive)	21.8 µM (inactive)	13.7 µM (inactive)	60.1 µM (inactive)
Cc1ccc(/N=N/c2ccc(O)c(CN(C)C)c2)cc1C	18.7 µM (inactive)	40.9 µM (inactive)	8.3 µM (inactive)	15.5 µM (inactive)	26.5 µM (inactive)	34.2 µM (inactive)	18.4 µM (inactive)	13.9 µM (inactive)	17.5 µM (inactive)	33 µM (inactive)	19.1 µM (inactive)	5.47 µM (inactive)	> 100 µM (inactive)	17.3	27.2 µM (inactive)	11.9 µM (inactive)	26.9 µM (inactive)	34.4 µM (inactive)	43.4 µM (inactive)	70.3 µM (inactive)
CC(=O)Nc1ccc2c3c(cc(O)c2c1)N(C(=O)CCCCCC(=O)N1CC(CCl)c2c1cc(O)c1cc(NC(C)=O)ccc21)CC3CCl (stereo unspecified)	0.0191 µM (active)	0.045 µM (active)	0.105 µM (active)	0.019 µM (active)	0.0296 µM (active)	< 0.01 µM (active)	0.0321 µM (active)	0.0625 µM (active)	0.0152 µM (active)	< 0.01 µM (active)	0.0125 µM (active)	0.0547 µM (active)	< 0.012 µM (active)	0.377	< 0.01 µM (active)	0.016 µM (active)	< 0.0149 µM (active)	< 0.01 µM (active)	0.181 µM (active)	< 0.01 µM (active)
CCCCCCCCCCCCOCCCCCCCCC/C=C/c1ccc2c(c1)OCCOCCOCCOCCO2	18.3 µM (inactive)	17.9 µM (inactive)	19.1 µM (inactive)	28 µM (inactive)	17.7 µM (inactive)	33.3 µM (inactive)	20.7 µM (inactive)	31.3 µM (inactive)	19.2 µM (inactive)	25.4 µM (inactive)	24.6 µM (inactive)	30.7 µM (inactive)	23.6 µM (inactive)	45.9	21 µM (inactive)	18.9 µM (inactive)	17.8 µM (inactive)	13.6 µM (inactive)	19.3 µM (inactive)	15.6 µM (inactive)
CCOC(=O)Oc1ccc2c(c1)c(=O)c1c(NCCN(CC)CC)ccc3nnn2c31	3.67 µM (inactive)	2.19 µM (inactive)	0.165 µM (active)	1.24 µM (inactive)	0.908 µM (active)	1.21 µM (inactive)	1.29 µM (inactive)	0.948 µM (active)	6.08 µM (inactive)	5.2 µM (inactive)	2.78 µM (inactive)	11.7 µM (inactive)	0.809 µM (active)	0.841	0.113 µM (active)	1.01 µM (active)	0.711 µM (active)	0.488 µM (active)	2.55 µM (inactive)	2.48 µM (inactive)
COC(=O)C(=O)C(C(=O)C(=O)Nc1ccc(C)c(C)c1)c1nc2ccc([N+](=O)[O-])cc2nc1O (stereo unspecified)	> 100 µM (inactive)	> 100 µM (inactive)	68.9 µM (inactive)	> 100 µM (inactive)	> 100 µM (inactive)	18.5 µM (inactive)	> 100 µM (inactive)	> 100 µM (inactive)	> 100 µM (inactive)	> 100 µM (inactive)	> 100 µM (inactive)	> 100 µM (inactive)	> 100 µM (inactive)	> 100	> 100 µM (inactive)	–	> 100 µM (inactive)	> 100 µM (inactive)	> 100 µM (inactive)	> 100 µM (inactive)
